≈ marks a conversion by molar mass, not a printed value. Where two headings read alike, the source gives them in different places.
Legend:
[1] = system: Staphylococus aureus FDA 209-P JC-1; assay: minimum inhibitory concentration, agar plate dilution method; assay type: cell-based; settings: Staphylococcus aureus, FDA209; S. aureus FDA 209-P JC-1; inoculated amount of cells 10^6 CFU/ml; Muller-Hinton agar; read-out: minimum inhibitory concentration (M.I.C.)
Escherichia coli ML 4707 [2] = assay: as above; assay type: cell-based; settings: ML4707, E. coli ML 4707, inoculated amount of cells 10^6 CFU/ml, Muller-Hinton agar, read-out: minimum inhibitory concentration (M.I.C.)
[3] = system: Klebsiella pneumoniae No. 42; assay: as above; assay type: cell-based
Proteus vulgaris No. 33 = assay: as above; assay type: cell-based
[4] = system: Serratia marcescens No. 16-2; assay: as above; assay type: cell-based
[5] = system: Enterobacter cloacae Nek 39; assay: as above; assay type: cell-based
[6] = system: Acinetobacter calcoaceticus No. 4; assay: as above; assay type: cell-based
[7] = system: Pseudomonas aeruginosa K-13; assay: as above; assay type: cell-based
[8] = system: Pseudomonas aeruginosa Y-1; assay: as above; assay type: cell-based
Pseudomonas cepacia 23 = assay: as above; assay type: cell-based
[9] = system: Staphyloccocus aureus Smith; assay: infection-preventive effects in mice (intraperitoneal infection, survival); assay type: in vivo, JCL:JCR type male mice; settings: Staphylococcus aureus, ip, 168 h; S. aureus Smith, 7.7 × 10^7 cells/mouse i.p., no mucin; compound hypodermically 1 hour after infection; 7-day survival
Escherichia coli ML 4707 [10] = assay: as above; assay type: in vivo, JCL:JCR type male mice; settings: ML4707, ip, 168 h, E. coli ML 4707, 1.1 × 10^6 cells/mouse i.p., no mucin, compound hypodermically 1 hour after infection, 7-day survival
[11] = system: Pseudomonas aeruginosa K-13; assay: as above; assay type: in vivo, JCL:JCR type male mice; settings: K13, ip, 168 h
[12] = system: Pseudomonas aeruginosa Y-1; assay: as above; assay type: in vivo, JCL:JCR type male mice; settings: Y1, ip, 168 h
[13] = K. pneumoniae No. 42, inoculated amount of cells 10^6 CFU/ml, Muller-Hinton agar, read-out: minimum inhibitory concentration (M.I.C.)
[14] = P. vulgaris No. 33, inoculated amount of cells 10^6 CFU/ml, Muller-Hinton agar, read-out: minimum inhibitory concentration (M.I.C.)
[15] = NO.162, S. marcescens No. 16-2, inoculated amount of cells 10^6 CFU/ml, Muller-Hinton agar, read-out: minimum inhibitory concentration (M.I.C.)
[16] = NEK39, E. cloacae Nek 39, inoculated amount of cells 10^6 CFU/ml, Muller-Hinton agar, read-out: minimum inhibitory concentration (M.I.C.)
[17] = A. calcoaceticus No. 4, inoculated amount of cells 10^6 CFU/ml, Muller-Hinton agar, read-out: minimum inhibitory concentration (M.I.C.)
[18] = K13, P. aeruginosa K-13, inoculated amount of cells 10^6 CFU/ml, Muller-Hinton agar, read-out: minimum inhibitory concentration (M.I.C.)
[19] = Y1, P. aeruginosa Y-1, inoculated amount of cells 10^6 CFU/ml, Muller-Hinton agar, read-out: minimum inhibitory concentration (M.I.C.)
[20] = Burkholderia cepacia, P. cepacia 23, inoculated amount of cells 10^6 CFU/ml, Muller-Hinton agar, read-out: minimum inhibitory concentration (M.I.C.)
[21] = P. aeruginosa K-13, 3.0 × 10^4 cells/mouse i.p., with mucin, compound hypodermically 1 hour after infection, 7-day survival, read-out: ED50
[22] = P. aeruginosa Y-1, 4.0 × 10^5 cells/mouse i.p., with mucin, compound hypodermically 1 hour after infection, 7-day survival, read-out: ED50

SMILES	MIC [1] [µg/mL]	MIC (Escherichia coli ML 4707 [2]) [µg/mL]	MIC [3, 13] [µg/mL]	MIC (Proteus vulgaris No. 33; [14]) [µg/mL]	MIC [4, 15] [µg/mL]	MIC [5, 16] [µg/mL]	MIC [6, 17] [µg/mL]	MIC [7, 18] [µg/mL]	MIC [8, 19] [µg/mL]	MIC (Pseudomonas cepacia 23; [20]) [µg/mL]	ED50 [9] [mg/kg]	ED50 (Escherichia coli ML 4707 [10]) [mg/kg]	ED50 [11, 21] [mg/kg]	ED50 [12, 22] [mg/kg]	other results
Cc1cc(SCC2=C(C(=O)O)N3C(=O)[C@@H](NC(=O)/C(=N\OCc4cc(=O)c(O)cn4O)c4csc(N)n4)[C@H]3SC2)n2nc(C(=O)O)nc2n1 [Example 4, (6R, 7R)-7-[(Z)-2-(2-aminothiazol-4-yl)-2-(1,5-dihydroxy-4-pyridon-2-ylmethoxyimino)acetamido]-3(2-carboxy-5-methyl-s-triazolo[1,5-a]pyrimidin-7-ylthiomethyl)-3-cephem-4-carboxylic acid]	12.5 (≈ 17.1 µM)	0.1 (≈ 0.137 µM)	0.2 (≈ 0.274 µM)	0.1 (≈ 0.137 µM)	0.39 (≈ 0.534 µM)	0.39 (≈ 0.534 µM)	12.5 (≈ 17.1 µM)	0.2 (≈ 0.274 µM)	0.39 (≈ 0.534 µM)	0.2 (≈ 0.274 µM)	8.7	0.16	12	4	
Nc1nc(/C(=N/OCc2cc(=O)c(O)cn2O)C(=O)N[C@@H]2C(=O)N3C(C(=O)O)=C(CSc4nnnn4CCO)CS[C@H]23)cs1 [Example 6]	25 (≈ 37.5 µM)	≤ 0.025	0.05 (≈ 0.075 µM)	0.05 (≈ 0.075 µM)	0.39 (≈ 0.585 µM)	0.78 (≈ 1.17 µM)	3.13 (≈ 4.69 µM)	0.2 (≈ 0.3 µM)	0.1 (≈ 0.15 µM)	0.1 (≈ 0.15 µM)	42	0.13	4.6	1.4	
NC(=O)c1cc[n+](CC2=C(C(=O)O)N3C(=O)[C@@H](NC(=O)[C@@H](c4ccccc4)S(=O)(=O)[O-])[C@H]3SC2)cc1 [CFS, cefsulodin, reference compound]	3.13 (≈ 5.88 µM)	50 (≈ 93.9 µM)	> 100		> 100	> 100	50 (≈ 93.9 µM)	3.13 (≈ 5.88 µM)	1.56 (≈ 2.93 µM)	> 100		> 100	39	13	
C[n+]1ccc(SCC2=C(C(=O)[O-])N3C(=O)[C@@H](NC(=O)/C(=N\OCc4cc(=O)c(O)cn4O)c4csc(N)n4)[C@H]3SC2)c2c1CCC2 [Example 19, (6R, 7R)-7-[(Z)-2-(2-aminothiazol-4-yl)-2-(1,5-dihydroxy-4-pyridon-2-ylmethoxyimino)acetamido]-3-(2,3-cyclopenteno-1-methylpyridinium-4-ylthiomethy)-3-cephem-4-carboxylate]	12.5 (≈ 18.2 µM)	0.05 (≈ 0.0729 µM)	0.1 (≈ 0.146 µM)	0.2 (≈ 0.292 µM)	1.56 (≈ 2.27 µM)	0.2 (≈ 0.292 µM)	6.25 (≈ 9.11 µM)	1.56 (≈ 2.27 µM)	0.78 (≈ 1.14 µM)	0.39 (≈ 0.569 µM)		0.077	9.6	7.8	
C[n+]1ccc(SCC2=C(C(=O)[O-])N3C(=O)[C@@H](NC(=O)/C(=N\OCc4cc(=O)c(O)cn4O)c4csc(N)n4)[C@H]3SC2)cc1 [Example 18, (6R, 7R)-7-[(Z)-2-(2-aminothiazol-4-yl)-2-(1,5-dihydroxy-4-pyridon-2-ylmethoxyimino)acetamido]-3-(1-methylpyridinium-4-ylthiomethyl)-3-cephem-4-carboxylat]	6.25 (≈ 9.68 µM)	≤ 0.025	0.05 (≈ 0.0774 µM)	0.1 (≈ 0.155 µM)	0.78 (≈ 1.21 µM)	0.39 (≈ 0.604 µM)	3.13 (≈ 4.85 µM)	0.78 (≈ 1.21 µM)	0.2 (≈ 0.31 µM)	0.2 (≈ 0.31 µM)	2.9	0.034	13	2	
Cn1nnnc1SCC1=C(C(=O)O)N2C(=O)[C@@H](NC(=O)/C(=N\OCc3cc(=O)c(O)cn3O)c3csc(N)n3)[C@H]2SC1 [Example 5, (6R, 7R)-7-[(Z)-2-(2-aminothiazol-4-yl)-2-(1,5-dihydroxy-4-pyridon-2-ylmethoxyimino)acetamido]-3(1-methyl-1H-tetrazol-5-ylthiomethyl)-3-cephem-4carboxylic acid]	50 (≈ 78.5 µM)	≤ 0.025	≤ 0.025	≤ 0.025	0.39 (≈ 0.613 µM)	0.39 (≈ 0.613 µM)	1.56 (≈ 2.45 µM)	0.1 (≈ 0.157 µM)	0.1 (≈ 0.157 µM)	0.05 (≈ 0.0785 µM)		0.12	18.9		
CC(C)(O/N=C(\C(=O)N[C@@H]1C(=O)N2C(C(=O)[O-])=C(C[n+]3ccccc3)CS[C@H]12)c1csc(N)n1)C(=O)O [CAZ, ceftazidime, reference compound]	12.5 (≈ 22.9 µM)	0.2 (≈ 0.366 µM)									17	0.73			MIC ([3]; NO.42, read-out: minimum inhibitory concentration (M.I.C.)): 0.39 µg/mL (≈ 0.714 µM); MIC (Proteus vulgaris No. 33; NO.33, read-out: minimum inhibitory concentration (M.I.C.)): 0.1 µg/mL (≈ 0.183 µM); MIC ([4]; NO.162, read-out: minimum inhibitory concentration (M.I.C.)): 1.56 µg/mL (≈ 2.85 µM); MIC ([5]; NEK39, read-out: minimum inhibitory concentration (M.I.C.)): 1.56 µg/mL (≈ 2.85 µM); MIC ([6]; NO.4, read-out: minimum inhibitory concentration (M.I.C.)): 6.25 µg/mL (≈ 11.4 µM); MIC ([7]; K13, read-out: minimum inhibitory concentration (M.I.C.)): 3.13 µg/mL (≈ 5.73 µM); MIC ([8]; Y1, read-out: minimum inhibitory concentration (M.I.C.)): 1.56 µg/mL (≈ 2.85 µM); MIC (Pseudomonas cepacia 23; Burkholderia cepacia, 23, read-out: minimum inhibitory concentration (M.I.C.)): 1.56 µg/mL (≈ 2.85 µM); ED50 [11]: 31 mg/kg; ED50 [12]: 16 mg/kg
CO/N=C(\C(=O)N[C@@H]1C(=O)N2C(C(=O)O)=C(COC(C)=O)CS[C@H]12)c1csc(N)n1 [CTX, cefotaxime, reference compound]	3.13 (≈ 6.87 µM)	≤ 0.025	0.1 (≈ 0.22 µM)	0.05 (≈ 0.11 µM)	6.25 (≈ 13.7 µM)	3.13 (≈ 6.87 µM)	25 (≈ 54.9 µM)	25 (≈ 54.9 µM)	12.5 (≈ 27.4 µM)	3.13 (≈ 6.87 µM)	3.1	0.095	> 100	> 200	

Source: US4822786A, “Cephalosporin compounds, and antibacterial agents” (Kaken Pharmaceutical Co., Ltd., priority 1986, dated 1989)
